From patent US10479780B2, “Aminopyrazole derivatives” (Chugai Seiyaku Kabushiki Kaisha, priority 2015, dated 2019) come the findings set out here.

Common to all, as to type: biochemical
For one experiment, the target named is T1, human Yes1 enzyme (Homo sapiens, UniProt P07947).
T1 construct: made in house
Briefly: Yes1 enzyme inhibitory activity (time-resolved fluorometry, biotinylated peptide phosphorylation). Conditions: read-out: YES_IC50. Summed up: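 Inhibition was expressed against a compound-free control to give IC50, using TR-FRET read-out (Eu-cryptate anti-pTyr antibody, streptavidin-XL665).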

Another experiment addresses T2, human Lck enzyme (Homo sapiens, UniProt P06239).
T2 construct: purchased Carna Biosciences, Inc. 08-170
Briefly: Lck enzyme inhibitory activity (time-resolved fluorometry, biotinylated peptide phosphorylation). The following applies: read-out: LCK_IC50. Summed up: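 Readout pairs a europium cryptate-labelled anti-phosphotyrosine antibody with XL665-streptavidin, measured by time-resolved fluorescence. IC50 derived from percent inhibition against untreated controls.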

The target of another experiment is T3, human Src enzyme (Homo sapiens, UniProt P12931).
T3 construct: purchased Carna Biosciences, Inc. 08-173
T3 sequence (P12931 whole entry): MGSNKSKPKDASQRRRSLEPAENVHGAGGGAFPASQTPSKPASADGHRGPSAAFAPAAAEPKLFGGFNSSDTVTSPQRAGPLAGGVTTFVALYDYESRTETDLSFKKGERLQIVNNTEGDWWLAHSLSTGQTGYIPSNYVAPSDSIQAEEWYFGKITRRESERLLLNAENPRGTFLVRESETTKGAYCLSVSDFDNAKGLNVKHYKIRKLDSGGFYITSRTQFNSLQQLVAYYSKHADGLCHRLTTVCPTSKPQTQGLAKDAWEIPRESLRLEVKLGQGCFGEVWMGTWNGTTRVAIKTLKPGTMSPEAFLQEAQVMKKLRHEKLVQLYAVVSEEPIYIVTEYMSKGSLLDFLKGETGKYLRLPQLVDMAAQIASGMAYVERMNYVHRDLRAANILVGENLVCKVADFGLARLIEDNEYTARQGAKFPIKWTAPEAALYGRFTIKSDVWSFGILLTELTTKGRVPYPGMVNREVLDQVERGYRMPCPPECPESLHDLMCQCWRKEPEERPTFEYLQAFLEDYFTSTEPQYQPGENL
In words: Src enzyme inhibitory activity (time-resolved fluorometry, biotinylated peptide phosphorylation). The following applies: read-out: SRC_IC50. Summed up: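 Compounds were tested for blocking tyrosine phosphorylation of a biotinylated peptide substrate by recombinant human Src. Phosphorylated product was quantified by time-resolved fluorometry using europium cryptate and XL665 conjugates, and IC50 was calculated against the compound-free control.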

Setting [1] is: biotinylated peptide phosphorylation.

Like-named read-outs stand apart in the source and are kept apart here.

T2 sequence (P06239 whole entry): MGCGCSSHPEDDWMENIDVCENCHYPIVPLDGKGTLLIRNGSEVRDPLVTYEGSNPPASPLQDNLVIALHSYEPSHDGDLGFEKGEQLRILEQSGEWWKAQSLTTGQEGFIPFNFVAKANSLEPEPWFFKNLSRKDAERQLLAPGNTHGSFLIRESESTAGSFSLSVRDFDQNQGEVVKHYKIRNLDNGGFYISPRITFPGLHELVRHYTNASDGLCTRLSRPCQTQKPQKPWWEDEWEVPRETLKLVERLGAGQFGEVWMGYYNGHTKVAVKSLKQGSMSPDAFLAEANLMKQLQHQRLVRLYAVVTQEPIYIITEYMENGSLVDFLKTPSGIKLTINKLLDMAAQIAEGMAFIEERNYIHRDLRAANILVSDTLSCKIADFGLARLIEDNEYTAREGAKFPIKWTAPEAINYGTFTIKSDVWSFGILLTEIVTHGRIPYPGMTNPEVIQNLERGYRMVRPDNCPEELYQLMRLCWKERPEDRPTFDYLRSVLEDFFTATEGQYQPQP
T1 sequence (P07947 whole entry): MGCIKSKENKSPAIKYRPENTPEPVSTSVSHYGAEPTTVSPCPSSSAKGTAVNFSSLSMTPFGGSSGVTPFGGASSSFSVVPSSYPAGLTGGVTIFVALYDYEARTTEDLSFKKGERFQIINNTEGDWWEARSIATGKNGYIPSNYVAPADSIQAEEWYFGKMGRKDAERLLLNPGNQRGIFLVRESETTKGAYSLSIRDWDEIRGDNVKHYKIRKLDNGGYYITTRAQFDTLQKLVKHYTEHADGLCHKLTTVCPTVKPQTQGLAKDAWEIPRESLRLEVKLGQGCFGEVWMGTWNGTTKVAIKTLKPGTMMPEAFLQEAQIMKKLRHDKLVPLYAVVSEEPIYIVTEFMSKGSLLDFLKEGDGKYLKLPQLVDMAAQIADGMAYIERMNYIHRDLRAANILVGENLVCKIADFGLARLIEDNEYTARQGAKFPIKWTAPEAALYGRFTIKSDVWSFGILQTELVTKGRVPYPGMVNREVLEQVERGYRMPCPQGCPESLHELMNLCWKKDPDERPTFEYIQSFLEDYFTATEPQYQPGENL

In the case of `Cc1cc(Oc2ccccc2F)ccc1-n1ncc(C(=O)c2cc3cc(OCC(F)F)c(N4CC(C)(C)NS4(=O)=O)cc3[nH]2)c1N` [Example 5-1-322, [5-amino-1-[4-(2-fluorophenoxy)-2-methylphenyl]pyrazol-4-yl]-[5-(2,2-difluoroethoxy)-6-(4,4-dimethyl-1,1-dioxo-1,2,5-thiadiazolidin-2-yl)-1H-indol-2-yl]methanone], the IC50 was found to be 4.1 nM on human Yes1 enzyme, 22 nM on human Lck enzyme and 70 nM at human Src enzyme.
The matching figures for `Cc1cc(Oc2c(F)cccc2F)ncc1-n1ncc(C(=O)c2cc3cc(OCC(F)F)c(NS(=O)(=O)c4cc(F)cc(F)c4)cc3[nH]2)c1N` [Example 5-1-330, N-[2-[5-amino-1-[6-(2,6-difluorophenoxy)-4-methylpyridin-3-yl]pyrazole-4-carbonyl]-5-(2,2-drfluoroethoxy)-1H-indol-6-yl]-3,5-difluorobenzenesulfonamide]: 11 nM, 200 nM and 700 nM.
In the case of `Cc1cc(Oc2ccccc2F)ccc1-n1ncc(C(=O)c2cc3cc(N4CCOCC4)c(NS(C)(=O)=O)cc3[nH]2)c1N` [Example 4-24-013, N-[2-[5-amino-1-[4-(2-fluorophenoxy)-2-methylphenyl]pyrazole-4-carbonyl]-5-morpholin-4-yl-1H-indol-6-yl]methanesulfonamide], the IC50 turned out to be 1.6 nM at human Yes1 enzyme (setting [1]), 12 nM at human Lck enzyme (setting [1]) and 40 nM on human Src enzyme (setting [1]).
The matching figures for `Cc1cnc(F)c(S(=O)(=O)Nc2cc3[nH]c(C(=O)c4cnn(-c5cnc(Oc6ccccc6F)cc5C)c4N)cc3cc2C)c1` [Example 5-1-504, N-[2-[5-amino-1-[6-(2-fluorophenoxy)-4-methylpyridin-3-yl]pyrazole-4-carbonyl]-5-methyl-1H-indol-6-yl]-2-fluoro-5-methylpyridine-3-sulfonamide]: 3.6 nM, 140 nM and 630 nM.
As to `Cc1ccnc(S(=O)(=O)Nc2cc3[nH]c(C(=O)c4cnn(-c5cnc(Oc6ccccc6F)cc5C)c4N)cc3cc2C)c1` [Example 5-1-506, N-[2-[5-amino-1-[6-(2-fluorophenoxy)-4-methylpyridin-3-yl]pyrazole-4-carbonyl]-5-methyl-1H-indol-6-yl]-4-rmethylpyridine-2-sulfonamide], the IC50 on human Yes1 enzyme (setting [1]) came out at 3 nM; on human Lck enzyme (setting [1]) it was 99 nM; on human Src enzyme (setting [1]) it was 500 nM.
The matching figures for `Cc1cc(Oc2c(F)cccc2F)ncc1-n1ncc(C(=O)c2cc3cc(OCC(F)F)c(NS(C)(=O)=O)cc3[nH]2)c1N` [Example 4-24-031, N-[2-[5-amino-1-[6-(2,6-difluorophenoxy)-4-methylpyridin-3-yl]pyrazole-4-carbonyl]-5-(2,2-difluoroethoxy)-1H-indol-6-yl]methanesulfonamide]: 1.2 nM, 6.7 nM and 21 nM.
`Cc1cc(Oc2c(F)cccc2F)ncc1-n1ncc(C(=O)c2cc3cc(N4CCOCC4)c(Br)cc3[nH]2)c1N` [Example 5-1-155, [5-amino-1-[6-(2,6-difluorophenoxy)-4-methylpyridin-3-yl]pyrazol-4-yl]-(6-bromo-5-morpholin-4-yl-1H-indol-2-yl)methanone]: the IC50 is 1.6 nM on human Yes1 enzyme, 12 nM on human Lck enzyme and 22 nM on human Src enzyme.
Take `Cc1cc(Oc2ccccc2F)ncc1-n1ncc(C(=O)c2cc3cc(OCC(F)F)c(NC4COC4)cc3[nH]2)c1N` [Example 4-23-020, [5-amino-1-[6-(2-fluorophenoxy)-4-methylpyridin-3-yl]pyrazol-4-yl]-[5-(2,2-difluoroethoxy)-6-(oxetan-3-ylamino)-1H-indol-2-yl]methanone]: the values for the IC50 at human Yes1 enzyme (setting [1]), at human Lck enzyme (setting [1]) and on human Src enzyme (setting [1]) were 1.4 nM, 3.8 nM and 30 nM, respectively.
The matching figures for `Cc1cc2cc(C(=O)c3cnn(-c4cnc(Oc5ccccc5F)cc4C)c3N)[nH]c2cc1NS(=O)(=O)c1cccnc1` [Example 5-1-441, N-[2-[5-amino-1-[6-(2-fluorophenoxy)-4-methylpyridin-3-yl]pyrazole-4-carbonyl]-5-methyl-1H-indol-6-yl]pyridine-3-sulfonamide]: 1.8 nM, 73 nM and 280 nM.
On to `Cc1cc(Oc2cccc(F)c2F)ccc1-n1ncc(C(=O)c2cc3cc(Cl)c(NS(C)(=O)=O)cc3[nH]2)c1N` [Example 4-2-078, N-[2-[5-amino-1-[4-(2,3-difluorophenoxy)-2-methylphenyl]pyrazole-4-carbonyl]-5-chloro-1H-indol-6-yl]methanesulfonamide], for which the values for the IC50 at human Yes1 enzyme (setting [1]), at human Lck enzyme (setting [1]) and on human Src enzyme (setting [1]) were 5.9 nM, 50 nM and 91 nM, respectively.
On to `Cc1cc(Oc2ccccc2F)ccc1-n1ncc(C(=O)c2cc3cc(C(C)C)c(NS(C)(=O)=O)cc3[nH]2)c1N` [Example 5-1-267, N-[2-[5-amino-1-[4-(2-fluorophenoxy)-2-methylphenyl]pyrazole-4-carbonyl]-5-propan-2-yl-1H-indol-6-yl]methanesulfonamide], for which the IC50 on human Yes1 enzyme worked out at 2 nM; at human Lck enzyme, 17 nM; on human Src enzyme, 21 nM.
For `Cc1cc2cc(C(=O)c3cnn(-c4cnc(Oc5ccccc5F)cc4C)c3N)[nH]c2cc1NS(=O)(=O)c1cncc(C#N)c1` [Example 5-1-480, N-[2-[5-amino-1-[6-(2-fluorophenoxy)-4-methylpyridin-3-yl]pyrazole-4-carbonyl]-5-methyl-1H-indol-6-yl]-5-cyanopyridine-3-sulfonamide], the figures for the IC50 at human Yes1 enzyme (setting [1]), on human Lck enzyme (setting [1]) and at human Src enzyme (setting [1]) were 6.4 nM, 100 nM and 400 nM, respectively.
In the case of `Cc1cc(Oc2c(F)cccc2F)ncc1-n1ncc(C(=O)c2cc3cc(OC4CCN(C(C)C)CC4)c(N4CCN(S(C)(=O)=O)CC4)cc3[nH]2)c1N` [Example 5-1-187, [5-amino-1-[6-(2,6-difluorophenoxy)-4-methylpyridin-3-yl]pyrazol-4-yl]-[6-(4-methylsulfonylpiperazin-1-yl)-5-(1-propan-2-ylpiperidin-4-yl)oxy-1H-indol-2-yl]methanone], the IC50 at human Yes1 enzyme stood at 0.62 nM; on human Lck enzyme, 2.3 nM; on human Src enzyme it was 3.2 nM.
On to `Cc1cc(Oc2ccccc2F)cc(F)c1-n1ncc(C(=O)c2cc3cc(OC(F)F)c(NS(=O)(=O)C4CC4)cc3[nH]2)c1N` [Example 4-24-005, N-[2-[5-amino-1-[2-fluoro-4-(2-fluorophenoxy)-6-methylphenyl]pyrazole-4-carbonyl]-5-(difluoromethoxy)-1H-indol-6-yl]cyclopropanesulfonamide], for which the IC50 stood at 4.7 nM at human Yes1 enzyme (setting [1]), 47 nM at human Lck enzyme (setting [1]) and 240 nM at human Src enzyme (setting [1]).
Consider `Cc1cc(Oc2ccccc2F)ncc1-n1ncc(C(=O)c2cc3cc(N4CCOCC4)c(NS(=O)(=O)N4CCOCC4)cc3[nH]2)c1N` [Example 4-22-004, N-[2-[5-amino-1-[6-(2-fluorophenoxy)-4-methylpyridin-3-yl]pyrazole-4-carbonyl]-5-morpholin-4-yl-1H-indol-6-yl]morpholine-4-sulfonamide], for which the figures for the IC50 at human Yes1 enzyme (setting [1]), at human Lck enzyme (setting [1]) and at human Src enzyme (setting [1]) were 1.2 nM, 78 nM and 360 nM, respectively.
As to `Cc1cc(Oc2cccc(F)c2F)ccc1-n1ncc(C(=O)c2cc3cc(F)c(NS(C)(=O)=O)cc3[nH]2)c1N` [Example 4-2-029, N-[2-[5-amino-1-[4-(2,3-difluorophenoxy)-2-methylphenyl]pyrazole-4-carbonyl]-5-fluoro-1H-indol-6-yl]methanesulfonamide], the IC50 stood at 0.64 nM at human Yes1 enzyme (setting [1]), 5.5 nM on human Lck enzyme (setting [1]) and 28 nM at human Src enzyme (setting [1]).
Take `Cc1cc(Oc2c(F)cccc2F)ncc1-n1ncc(C(=O)c2cc3cc(N4CCOCC4)c(N4CCCS4(=O)=O)cc3[nH]2)c1N` [Example 4-25-008, [5-amino-1-[6-(2,6-difluorophenoxy)-4-methylpyridin-3-yl]pyrazol-4-yl]-[6-(1,1-dioxo-1,2-thiazolidin-2-yl)-5-morpholin-4-yl-1H-indol-2-yl]methanone]: the IC50 at human Yes1 enzyme (setting [1]) was 1.5 nM; at human Lck enzyme (setting [1]), 8.2 nM; at human Src enzyme (setting [1]) it was 22 nM.
For the compound `Cc1cc(Oc2ccccc2F)ccc1-n1ncc(C(=O)c2cc3cc(F)c(NS(=O)(=O)c4cccc(Cl)c4)cc3[nH]2)c1N` [Example 5-1-558, N-[2-[5-amino-1-[4-(2-fluorophenoxy)-2-methylphenyl]pyrazole-4-carbonyl]-5-fluoro-1H-indol-6-yl]-3-chlorobenzenesulfonamide], the IC50 on human Yes1 enzyme (setting [1]) amounted to 4.9 nM; at human Lck enzyme (setting [1]) it was 230 nM; on human Src enzyme (setting [1]), 1500 nM.
`Cc1cc(-n2ncc(C(=O)c3cc4cc(OC(F)F)c(N5CCOCC5)cc4[nH]3)c2N)ccc1Oc1ccccc1F` [Example 5-1-173, [5-amino-1-[4-(2-fluorophenoxy)-3-methylphenyl]pyrazol-4-yl]-[5-(difluoromethoxy)-6-morpholin-4-yl-1H-indol-2-yl]methanone]: the figures for the IC50 on human Yes1 enzyme, on human Lck enzyme and on human Src enzyme were 2.6 nM, 100 nM and 340 nM, respectively.
With `Cc1cc(Oc2c(F)cccc2F)ncc1-n1ncc(C(=O)c2cc3cc(F)c(NS(=O)(=O)c4cccc(F)c4)cc3[nH]2)c1N` [Example 5-1-553, N-[2-[5-amino-1-[6-(2,6-difluorophenoxy)-4-methylpyridin-3-yl]pyrazole-4-carbonyl]-5-fluoro-1H-indol-6-yl]-3-fluorobenzenesulfonamide], the IC50 at human Yes1 enzyme (setting [1]) was found to be 17 nM; at human Lck enzyme (setting [1]), 370 nM; at human Src enzyme (setting [1]) it was 1300 nM.
